Laboratory results: patent publication US4338122A, “Biocidal 2-aryl-1,3-cyclopentanedione compounds and alkali metal and ammonium salts thereof” (Union Carbide Corporation, priority 1980, dated 1982)
In brackets after ≈: the same amount, converted by molar mass.

What was measured:
Assay type in all cases: in vivo
[1] = tested on: egg of the two-spotted mite (Tetranychus urticae (Koch)); test: Mite Ovicide Test (egg); set-up: key to Miticidal, Egg (control rating): A: Excellent Control; B: Partial Control; No Control; details: for LC50: Tetranychus urticae, Table II, read-out: Miticidal LD50, Egg (ppm required for a 50 percent kill of eggs); for Miticidal, Egg (control rating): Table I, unhatched/hatched eggs four days after spraying
Method: (§1) Suspensions of the test compounds were prepared by dissolving one gram of compound in 50 milliliters of acetone in which had been dissolved 0.1 gram (10 percent of the weight of compound) of an alkylphenoxyethoxyethanol surfactant, as an emulsifying or dispersing agent. The resulting solution was mixed into 160 milliliters of water to give roughly 200 milliliters of a suspension containing the compound in finely divided form. The thus prepared stock suspension contained 0.5 percent by weight of compound. The test concentrations employed in the tests described herein below were obtained by diluting the stock suspension with water. The test procedures were as follows:
The test organism was the egg of the two-spotted mite (Tetranychus urticae (Koch)), as obtained from adults reared on Tendergreen bean plants under controlled conditions of 80°±5° F. and 50±5 percent relative humidity. Heavily infested leaves from a stock culture were placed on the primary leaves of two bean plants six to eight inches in height growing in a two-and-a-half inch clay pot. Females were allowed to oviposit for a period of 48 hours and then the leaves of the infested plants were dipped in a solution containing 800 parts of tetraethyl pyrophosphate per million parts of water in order to destroy the reproductory forms and thus prevent further egg laying. […] The plants were allowed to dry thoroughly. The test compounds were formulated by diluting the stock suspension with water to give a suspension containing varying amounts of test compound per million parts of final formulation. The potted plants (one pot per compound) were placed on a revolving turntable and sprayed with 100-110 milliliters of test compound formulation by use of a DeVilbis spray gun set at 40 spig. air pressure. This application which lasted 30 seconds, was sufficient to wet the plants to run-off. As a control, 100-110 milliliters of a water solution containing acetone and emulsifier in the same concentrations as the test compound formulation, but containing no test compound, were also sprayed on plants infested with eggs. The sprayed plants were held at 80°±5° F. and 50±5 percent relative humidity for four days, after which a microscopic examination was made of unhatched (dead) and hatched (living) eggs.
(§2) In these tests the pesticidal activity of the compounds against mites and mite eggs were rated as follows:
(§3) Tests were conducted in accordance with the procedures given at pages 32 to 37 supra. The results are expressed in the same manner as used in Table I, except with respect to miticidal activity. For mite adult and mite egg comparison purposes, results are given in parts per million (ppm) required for a 50 percent kill of mites or eggs, respectively.

[2] = tested on: two-spotted mite (Tetranychus urticae (Koch)), adults and nymphal stages; test: Mite Foliage Spray Test (adult miticidal); set-up: key to Miticidal, Adult (control rating): A: Excellent Control; B: Partial Control; No Control; details: for LC50: Tetranychus urticae, foliar, Table II, read-out: Miticidal LD50, Adult (ppm required for a 50 percent kill of mites); for Miticidal, Adult (control rating): Table I, mortality count four days after spraying
Method: as §1
Adults and nymphal stages of the two-spotted mite (Tetranychus urticae (Koch)), reared on Tendergreen bean plants at 80°±5° F. and 50±5 percent relative humidity, were the test organisms. Infested leaves from a stock culture were placed on the primary leaves of two bean plants six to eight inches in height, growing in a two-and-a-half inch clay pot. 150-200 Mites, a sufficient number for testing, transferred from the excised leaves to the fresh plants in a period of twenty-four hours. Following the twenty-four hour transfer period, the excised leaves were removed from the infested plants. The test compounds were formulated by diluting the stock suspension with water to provide suspensions containing the desired amount of test compound per million parts of final formulation. The potted plants (one pot per compound) were placed on a revolving turntable and sprayed with 100-110 milliliters of test compound formulation by use of a DeVilbis spray gun set at 40 psi. air pressure. This application, which lasted 30 seconds, was sufficient to wet the plants to run-off. As a control, 100-110 milliliters of a water solution containing acetone and emulsifier in the same concentrations as the test compound formulation, but containing no test compound, were also sprayed on infested plants. The sprayed plants were held at 80°±5° F. and 50±5 percent relative humidity for four days, after which, a mortality count of motile forms was made on the leaves of the test plants. Any individual which was capable of locomotion upon prodding was considered living.
as §2, §3

Soybean = test: Post-emergent herbicidal test, soybean; set-up: key: 1: no perceptible injury; 2: intermediate degrees of injury based upon the number and extent to which leaves were injured; 3: intermediate degrees of injury based upon the number and extent to which leaves were injured; 4: intermediate degrees of injury based upon the number and extent to which leaves were injured; 5: the plant was dead; details: 2500 parts per million, after ten days
Method: as §1
Experiments were also conducted to determine the phytotoxicity of representative compositions with respect to healthy fresh plants. Solutions of the compounds were prepared as described above to provide a concentration of 2500 parts per million of the test compound. The test plants were sprayed in accordance with the procedure described above for the Mite Foliage Spray Test so as to deliver approximately 100 milliliters of test solutions to the leaves of each plant tested. The sprayed plants and controls were set aside for approximately one hour to allow the solutions to dry and were then placed in the greenhouse. After ten days the plants were visually inspected to determine the extent of foliage injury. A rating of 1 indicates no perceptible injury; 5 indicates the plant was dead and ratings of 2, 3 and 4 indicate intermediate degrees of injury based upon the number and extent to which leaves were injured.
as §3

Row | Compound | LC50 [1] [µg/mL] | LC50 [2] [µg/mL] | Post-Emergent Herbicidal, Soybean (injury rating) (Soybean; Table II) | Miticidal, Egg (control rating) [1] | Miticidal, Adult (control rating) [2] | Post-Emergent Herbicidal, Soybean (injury rating) (Soybean; Table I)
1 | Cc1ccc(C)c(C2C(=O)c3ccccc3C2=O)c1 [Reference II Page 146, Compound 6, reference compound] | 200 (≈ 799 µM) | 500 (≈ 2000 µM) | 0 |  |  | 
2 | Cc1ccc(C)c(C2C(=O)CCC2=O)c1 [CH3 H CH3 H H] |  |  |  | B | A | 3
3 | Cc1ccc(C2C(=O)CCC2=O)c(C)c1 [CH3 CH3 H H H, 2-(2',4'-dimethylphenyl)-1,3-cyclopentanedione] | 110 (≈ 544 µM) | 15 (≈ 74.2 µM) | 1 | A | A | 1
4 | Cc1ccccc1C1C(=O)c2ccccc2C1=O [Reference I Page 3, Compound 1, reference compound] | 500 (≈ 2120 µM) | 200 (≈ 846 µM) | 0 |  |  | 
5 | Cc1ccc(C)c(C2C(=O)C3CCCCC3C2=O)c1 (stereo not drawn) [CH3 H CH3 (CH2)4, 2-(2',5'-dimethylphenyl)-4,5,6,7,8,9-hexahydro-1,3-indandione] | 30 (≈ 117 µM) | 35 (≈ 137 µM) | 1 | A | A | 1
6 | O=C1CCC(=O)C1c1ccccc1Cl [Cl H H H H] |  |  |  | C | B | 1
7 | O=C1CCC(=O)C1c1ccc(Cl)cc1Cl [Cl Cl H H H, 2-(2',4'-Dichlorophenyl)-1,3-cyclopentanedione] |  |  |  | B | A | 1
8 | Cc1ccc(C2C(=O)C3CCCCC3C2=O)c(C)c1 (stereo not drawn) [CH3 CH3 H (CH2)4, 2-(2',4'-dimethylphenyl)-4,5,6,7,8,9-hexahydro-1,3-indandione] | 15 (≈ 58.5 µM) | 7 (≈ 27.3 µM) | 1 | A | A | 5
9 | Cc1ccccc1C1C(=O)CCC1=O [CH3 H H H H, 2-(2'-methylphenyl)-1,3-cyclopentanedione] | 500 (≈ 2660 µM) | 90 (≈ 478 µM) | 1 | B | A | 1
10 | Cc1ccc(C2C(=O)c3ccccc3C2=O)c(C)c1 [Reference II Page 146, Compound 9, reference compound] | 110 (≈ 439 µM) | 40 (≈ 160 µM) | 0 |  |  | 
11 | Cc1ccccc1C1C(=O)C2CCCCC2C1=O (stereo not drawn) [CH3 H H (CH2)4, 2-(2'-Methylphenyl)-4,5,6,7,8,9-hexahydro-1,3 indandione] | 22 (≈ 90.8 µM) | 12 (≈ 49.5 µM) | 1 | A | A | 1
12 | Cc1ccc(C)c(C2C(=O)CC(C)C2=O)c1 (stereo not drawn) [CH3 H CH3 CH3 H, 2-(2',5'-Dimethylphenyl)-4-methyl-1,3-cyclopentanedione] |  |  |  | B | A | 2
